Measured values published in the NIST ThermoML archive (doi:10.1016/j.jct.2018.10.006).

Test: molar heat capacity at constant pressure
Conditions: 101.33 kPa

O=P([O-])([O-])[O-].[Cs+].[Ni+2] [cesium nickel monophosphate]
Conditions | molar heat capacity at constant pressure [J/K/mol]
344.8 K, Crystal 2, DSC | 162.96
345.8 K, Crystal 2, DSC | 163.79
346.8 K, Crystal 2, DSC | 163.79
347.8 K, Crystal 2, DSC | 163.79
348.8 K, Crystal 2, DSC | 164.63
349.8 K, Crystal 2, DSC | 165.46
350 K, Crystal 2, Small (less than 1 g) adiabatic calorimetry | 165.04
350.8 K, Crystal 2, DSC | 165.46
351.8 K, Crystal 2, DSC | 165.46
352.8 K, Crystal 2, DSC | 166.29
353.8 K, Crystal 2, DSC | 167.12
354.8 K, Crystal 2, DSC | 167.12
355.8 K, Crystal 2, DSC | 167.12
356.8 K, Crystal 2, DSC | 167.95
357.8 K, Crystal 2, DSC | 167.95
358.8 K, Crystal 2, DSC | 168.78
359.8 K, Crystal 2, DSC | 168.78
360 K, Crystal 2, Small (less than 1 g) adiabatic calorimetry | 169.2
360.8 K, Crystal 2, DSC | 169.61
361.8 K, Crystal 2, DSC | 170.45
362.8 K, Crystal 2, DSC | 170.45
363.8 K, Crystal 2, DSC | 170.45
364.8 K, Crystal 2, DSC | 171.28
365.8 K, Crystal 2, DSC | 172.11
366.8 K, Crystal 2, DSC | 172.11
367.8 K, Crystal 2, DSC | 172.94
368.8 K, Crystal 2, DSC | 172.94
369.8 K, Crystal 2, DSC | 172.94
370 K, Crystal 2, Small (less than 1 g) adiabatic calorimetry | 173.36
370.8 K, Crystal 2, DSC | 173.77
371.8 K, Crystal 2, DSC | 173.77
372.8 K, Crystal 2, DSC | 174.6
373.8 K, Crystal 2, DSC | 175.44
374.8 K, Crystal 2, DSC | 177.1
376.3 K, Crystal 2, DSC | 180.42
380 K, Crystal 2, Small (less than 1 g) adiabatic calorimetry | 176.27
382.8 K, Crystal 1, DSC | 178.26
382.8 K, Crystal 2, Small (less than 1 g) adiabatic calorimetry | 176.68
387.8 K, Crystal 1, DSC | 183.75
388.8 K, Crystal 1, DSC | 179.59
389.8 K, Crystal 1, DSC | 177.93
390 K, Crystal 1, DSC | 177.1
390.8 K, Crystal 1, DSC | 177.1
391.8 K, Crystal 1, DSC | 177.1
392.8 K, Crystal 1, DSC | 177.1
393.8 K, Crystal 1, DSC | 177.1
394.8 K, Crystal 1, DSC | 176.27
395.8 K, Crystal 1, DSC | 177.1
396.8 K, Crystal 1, DSC | 176.27
397.8 K, Crystal 1, DSC | 176.27
398.8 K, Crystal 1, DSC | 176.27
399.8 K, Crystal 1, DSC | 176.27
400 K, Crystal 1, DSC | 175.85
400.8 K, Crystal 1, DSC | 175.44
402.8 K, Crystal 1, DSC | 175.44
404.8 K, Crystal 1, DSC | 174.6
407.1 K, Crystal 1, DSC | 174.6
408.8 K, Crystal 1, DSC | 174.6
410 K, Crystal 1, DSC | 175.02
410.8 K, Crystal 1, DSC | 174.6
412.8 K, Crystal 1, DSC | 174.6
414.8 K, Crystal 1, DSC | 174.6
416.8 K, Crystal 1, DSC | 174.6
418.8 K, Crystal 1, DSC | 174.6
420 K, Crystal 1, DSC | 174.52
420.8 K, Crystal 1, DSC | 174.6
422.8 K, Crystal 1, DSC | 174.6
424.8 K, Crystal 1, DSC | 174.6
426.8 K, Crystal 1, DSC | 174.6
428.8 K, Crystal 1, DSC | 174.6
430 K, Crystal 1, DSC | 174.27
430.8 K, Crystal 1, DSC | 174.6
432.8 K, Crystal 1, DSC | 174.6
434.8 K, Crystal 1, DSC | 174.6
436.8 K, Crystal 1, DSC | 174.6
438.8 K, Crystal 1, DSC | 174.6
440 K, Crystal 1, DSC | 174.27
440.8 K, Crystal 1, DSC | 173.77
442.8 K, Crystal 1, DSC | 174.6
444.8 K, Crystal 1, DSC | 174.6
446.8 K, Crystal 1, DSC | 174.6
448.8 K, Crystal 1, DSC | 173.77
450 K, Crystal 1, DSC | 174.44
450.8 K, Crystal 1, DSC | 173.77
452.8 K, Crystal 1, DSC | 173.77
454.8 K, Crystal 1, DSC | 174.6
456.8 K, Crystal 1, DSC | 173.77
458.8 K, Crystal 1, DSC | 174.6
460 K, Crystal 1, DSC | 174.77
460.8 K, Crystal 1, DSC | 174.6
462.8 K, Crystal 1, DSC | 174.6
464.8 K, Crystal 1, DSC | 174.6
466.8 K, Crystal 1, DSC | 174.6
468.8 K, Crystal 1, DSC | 175.44
470 K, Crystal 1, DSC | 175.19
470.8 K, Crystal 1, DSC | 175.44
472.8 K, Crystal 1, DSC | 175.44
474.8 K, Crystal 1, DSC | 175.44
476.8 K, Crystal 1, DSC | 176.27
478.8 K, Crystal 1, DSC | 176.27
480 K, Crystal 1, DSC | 175.68
480.8 K, Crystal 1, DSC | 176.27
482.8 K, Crystal 1, DSC | 176.27
484.8 K, Crystal 1, DSC | 176.27
486.8 K, Crystal 1, DSC | 176.27
488.8 K, Crystal 1, DSC | 176.27
490 K, Crystal 1, DSC | 176.18
490.8 K, Crystal 1, DSC | 177.1
492.8 K, Crystal 1, DSC | 177.1
494.8 K, Crystal 1, DSC | 177.1
496.8 K, Crystal 1, DSC | 177.1
498.8 K, Crystal 1, DSC | 177.1
500 K, Crystal 1, DSC | 176.77
500.8 K, Crystal 1, DSC | 177.1
502.8 K, Crystal 1, DSC | 177.1
504.8 K, Crystal 1, DSC | 177.1
506.8 K, Crystal 1, DSC | 177.1
508.8 K, Crystal 1, DSC | 177.1
510 K, Crystal 1, DSC | 177.26
510.8 K, Crystal 1, DSC | 177.1
512.8 K, Crystal 1, DSC | 177.1
514.8 K, Crystal 1, DSC | 177.1
516.8 K, Crystal 1, DSC | 177.1
518.8 K, Crystal 1, DSC | 177.1
520 K, Crystal 1, DSC | 177.76
520.8 K, Crystal 1, DSC | 177.93
522.8 K, Crystal 1, DSC | 177.93
524.8 K, Crystal 1, DSC | 177.93
526.8 K, Crystal 1, DSC | 177.93
528.8 K, Crystal 1, DSC | 177.93
530 K, Crystal 1, DSC | 178.26
530.8 K, Crystal 1, DSC | 177.93
532.8 K, Crystal 1, DSC | 177.93
534.8 K, Crystal 1, DSC | 177.93
536.8 K, Crystal 1, DSC | 177.93
538.8 K, Crystal 1, DSC | 178.76
540 K, Crystal 1, DSC | 178.76
540.8 K, Crystal 1, DSC | 178.76
542.8 K, Crystal 1, DSC | 178.76
544.8 K, Crystal 1, DSC | 178.76
546.8 K, Crystal 1, DSC | 178.76
548.8 K, Crystal 1, DSC | 178.76
550 K, Crystal 1, DSC | 179.18
550.8 K, Crystal 1, DSC | 178.76
552.8 K, Crystal 1, DSC | 178.76
554.8 K, Crystal 1, DSC | 179.59
556.8 K, Crystal 1, DSC | 179.59
558.8 K, Crystal 1, DSC | 179.59
560 K, Crystal 1, DSC | 179.59
560.8 K, Crystal 1, DSC | 179.59
562.8 K, Crystal 1, DSC | 179.59
564.8 K, Crystal 1, DSC | 179.59
566.8 K, Crystal 1, DSC | 180.42
568.8 K, Crystal 1, DSC | 180.42
570 K, Crystal 1, DSC | 180.01
570.8 K, Crystal 1, DSC | 180.42
572.8 K, Crystal 1, DSC | 180.42
574.8 K, Crystal 1, DSC | 180.42
576.8 K, Crystal 1, DSC | 180.42
578.8 K, Crystal 1, DSC | 180.42
580 K, Crystal 1, DSC | 180.34
580.8 K, Crystal 1, DSC | 180.42
582.8 K, Crystal 1, DSC | 180.42
584.8 K, Crystal 1, DSC | 180.42
586.8 K, Crystal 1, DSC | 180.42
588.8 K, Crystal 1, DSC | 180.42
590 K, Crystal 1, DSC | 180.76
590.8 K, Crystal 1, DSC | 181.26
592.8 K, Crystal 1, DSC | 181.26
594.8 K, Crystal 1, DSC | 181.26
596.8 K, Crystal 1, DSC | 181.26
598.8 K, Crystal 1, DSC | 181.26
600 K, Crystal 1, DSC | 181.26
600.8 K, Crystal 1, DSC | 181.26
602.8 K, Crystal 1, DSC | 181.26
604.8 K, Crystal 1, DSC | 181.26
606.8 K, Crystal 1, DSC | 181.26
608.8 K, Crystal 1, DSC | 182.09
610 K, Crystal 1, DSC | 181.84
610.8 K, Crystal 1, DSC | 182.09
612.8 K, Crystal 1, DSC | 182.09
614.8 K, Crystal 1, DSC | 182.09
616.8 K, Crystal 1, DSC | 182.09
618.8 K, Crystal 1, DSC | 182.09
620 K, Crystal 1, DSC | 182.5
620.8 K, Crystal 1, DSC | 182.09
622.8 K, Crystal 1, DSC | 182.92
624.8 K, Crystal 1, DSC | 182.92
626.8 K, Crystal 1, DSC | 182.92
628.8 K, Crystal 1, DSC | 182.92
630 K, Crystal 1, DSC | 183.25
630.8 K, Crystal 1, DSC | 182.92
632.8 K, Crystal 1, DSC | 183.75
634.8 K, Crystal 1, DSC | 183.75
636.8 K, Crystal 1, DSC | 183.75
638.8 K, Crystal 1, DSC | 184.58
640 K, Crystal 1, DSC | 184.33
640.8 K, Crystal 1, DSC | 184.58
642.8 K, Crystal 1, DSC | 184.58
644.8 K, Crystal 1, DSC | 184.58
646.8 K, Crystal 1, DSC | 185.41
648.8 K, Crystal 1, DSC | 185.41
650 K, Crystal 1, DSC | 185.58
